Experimental data: patent publication US20200017467A1, “NOVEL TRIAZOLE DERIVATIVES” (BAYER CROPSCIENCE AKTIENGESELLSCHAFT, priority 2017, published 2020)

Columns and labels:
[1] = system: Blumeria graminis fsp. hordei; experiment: In vivo preventive Blumeria test (barley); conditions: 168 h, 500 ppm of active ingredient, preventive spray, evaluated 7 days after inoculation, read-out: efficacy
Procedure: Example E: In Vivo Preventive Blumeria Test (Barlev) [table] To produce a suitable preparation of active compound, 1 part by weight of active compound or active compound combination was mixed with the stated amounts of solvent and emulsifier, and the concentrate was diluted with water to the desired concentration. To test for preventive activity, young plants were sprayed with the preparation of active compound or active compound combination at the stated rate of application. After the spray coating had been dried, the plants were dusted with spores of Blumeria graminis fsp. hordei. The plants were placed in the greenhouse at a temperature of approximately 18° C. and a relative atmospheric humidity of approximately 80% to promote the development of mildew pustules. The test was evaluated 7 days after the inoculation. 0% means an efficacy which corresponds to that of the untreated control, while an efficacy of 100% means that no disease is observed.

[2] = system: Septoria tritici; experiment: Example F-C: in vivo 5 days preventive Septoria tritici test (wheat); conditions: Zymoseptoria tritici, 504 h, inoculated 5 days after spraying, evaluated 21 days after inoculation, read-out: Efficacy in % Example F-C
Procedure: Example F: In Vivo Septoria tritici Test (Wheat); Comparison of Pyridinyloxy-Pyridyl Compounds According to the Invention Vs. Compounds Known from WO-A 2010/146116 [table] To produce a suitable preparation of active compound, 1 part by weight of active compound or active compound combination is mixed with the stated amounts of solvent and emulsifier, and the concentrate is diluted with water to the desired concentration. Example F-C: In Vivo 5 Days Preventive Septoria tritici Test (Wheat) To test for preventive and long-lasting activity, young plants are sprayed with a preparation of active compound or active compound combination at the stated rate of application. After the spray coating has been dried, the plants are placed in the greenhouse at a temperature of approximately 15° C. and a relative atmospheric humidity of approximately 80%. 5 days later the plants are sprayed with a spore suspension of Septoria tritici. The plants remain for 48 hours in an incubation cabinet at approximately 20° C. and a relative atmospheric humidity of approximately 100% and afterwards for 60 hours at approximately 15° C. in a translucent incubation cabinet at a relative atmospheric humidity of approximately 100%. Then the plants are placed in the greenhouse at a temperature of approximately 15° C. and a relative atmospheric humidity of approximately 80%. The test is evaluated 21 days after the inoculation. 0% means an efficacy which corresponds to that of the untreated control, while an efficacy of 100% means that no disease is observed.

[3] = system: Septoria tritici; experiment: Example F-A: in vivo preventive Septoria tritici test (wheat); conditions: Zymoseptoria tritici, 504 h, evaluated 21 days after inoculation, read-out: Efficacy in % Example F-A
Procedure: Example F: In Vivo Septoria tritici Test (Wheat); Comparison of Pyridinyloxy-Pyridyl Compounds According to the Invention Vs. Compounds Known from WO-A 2010/146116 [table] To produce a suitable preparation of active compound, 1 part by weight of active compound or active compound combination is mixed with the stated amounts of solvent and emulsifier, and the concentrate is diluted with water to the desired concentration. Example F-A: In Vivo Preventive Septoria tritici Test (Wheat) To test for preventive activity, young plants are sprayed with the preparation of active compound or active compound combination at the stated rate of application. After the spray coating has been dried, the plants are sprayed with a spore suspension of Septoria tritici. The plants remain for 48 hours in an incubation cabinet at approximately 20° C. and a relative atmospheric humidity of approximately 100% and afterwards for 60 hours at approximately 15° C. in a translucent incubation cabinet at a relative atmospheric humidity of approximately 100%. The plants are placed in the greenhouse at a temperature of approximately 15° C. and a relative atmospheric humidity of approximately 80%. The test is evaluated 21 days after the inoculation. 0% means an efficacy which corresponds to that of the untreated control, while an efficacy of 100% means that no disease is observed.

[4] = system: Septoria tritici; experiment: In vivo preventive test on Septoria tritici (leaf spot on wheat); conditions: Zymoseptoria tritici, 576 h, 500 ppm of active ingredient, preventive spray, evaluated 24 days after inoculation, read-out: efficacy
Procedure: Example B: In Vivo Preventive Test on Septoria tritici (Leaf Spot on Wheat) [table] The active ingredients were made soluble and homogenized in a mixture of dimethyl sulfoxide/acetone//Tween® 80 and then diluted in water to the desired concentration. Young plants of wheat were treated by spraying the active ingredient prepared as described above. Control plants were treated only with an aqueous solution of acetone/dimethyl sulfoxide/Tween® 80. After 24 hours, the plants were contaminated by spraying the leaves with an aqueous suspension of Septoria tritici spores. The contaminated wheat plants were incubated for 72 hours at 18° C. and at 100% relative humidity and then for 21 days at 20° C. and at 90% relative humidity. The test was evaluated 24 days after the inoculation. 0% means an efficacy which corresponds to that of the control plants while an efficacy of 100% means that no disease was observed.

[5] = system: Sphaerotheca fuliginea; experiment: In vivo preventive test on Sphaerotheca fuliginea (powdery mildew on cucurbits); conditions: Podosphaera fuliginea, 360 h; 500 ppm of active ingredient; gherkin, preventive spray, evaluated 15 days after inoculation; read-out: efficacy
Procedure: Example C: In Vivo Preventive Test on Sphaerotheca fuliginea (Powdery Mildew on Cucurbits) [table] The active ingredients were made soluble and homogenized in a mixture of dimethyl sulfoxide/acetone//Tween® 80 and then diluted in water to the desired concentration. Young plants of gherkin were treated by spraying the active ingredient prepared as described above. Control plants were treated only with an aqueous solution of acetone/dimethyl sulfoxide/Tween® 80. After 24 hours, the plants were contaminated by spraying the leaves with an aqueous suspension of Sphaerotheca fuliginea spores. The contaminated gherkin plants were incubated for 72 hours at 18° C. and at 100% relative humidity and then for 12 days at 20° C. and at 70-80% relative humidity. The test was evaluated 15 days after the inoculation. 0% means an efficacy which corresponds to that of the control plants while an efficacy of 100% means that no disease was observed.

Row | SMILES | pest or weed control at 500 ppm [1] [%] | pest or weed control at 500 ppm [2] [%] | pest or weed control at 500 ppm [3] [%] | pest or weed control at 500 ppm [4] [%] | pest or weed control at 500 ppm [5] [%]
1 | CC(O)(Cn1cncn1)c1ccc(Oc2ccc(Cl)nc2)nc1C(F)(F)F (stereo not drawn) [I-05] | 90 to 100 | 63 | 100 | 90 to 100 | 90 to 100
2 | CC(O)(Cn1cncn1)c1ccc(Oc2ccc(Br)nc2)nc1C(F)(F)F (stereo not drawn) [I-01, 2-[6-[(6-bromo-3-pyridyl)oxy]-2-(trifluoromethyl)-3-pyridyl]-1-(1,2,4-triazol-1-yl)propan-2-ol] | 90 to 100 | 100 | 100 | 90 to 100 | 90 to 100
3 | CC(O)(Cn1cncn1)c1cnc(Oc2ccc(Br)nc2)cc1C(F)(F)F (stereo not drawn) [I-07] | 90 to 100 | 100 | 100 | 90 to 100 | 90 to 100
4 | OC(Cn1cncn1)c1cnc(Oc2ccc(Br)nc2)cc1C(F)(F)F (stereo not drawn) [I-13] | 90 to 100 | 100 | 100 | 90 to 100 | 90 to 100
5 | CC(O)(Cn1cncn1)c1ccc(Oc2ccc(C(F)(F)F)nc2)nc1C(F)(F)F (stereo not drawn) [I-02, 1-(1,2,4-triazol-1-yl)-2-[2-(trifluoromethyl)-6-[[6-(trifluoromethyl)-3-pyridyl]oxy]-3-pyridyl]propan-2-ol] | 90 to 100 | 100 | 100 | 90 to 100 | 90 to 100
6 | OC(Cn1cncn1)c1ccc(Oc2ccc(C(F)(F)F)nc2)nc1C(F)(F)F (stereo not drawn) [I-09] | 90 to 100 | 100 | 100 | 90 to 100 | 90 to 100
7 | CC(O)(Cn1cncn1)c1cnc(Oc2ccc(Cl)nc2)cc1C(F)(F)F (stereo not drawn) [I-06, 2-[6-[(6-chloro-3-pyridyl)oxy]-4-(trifluoromethyl)-3-pyridyl]-1-(1,2,4-triazol-1-yl)propan-2-ol] | 90 to 100 | 88 | 100 | 90 to 100 | 90 to 100
8 | CC(O)(Cn1cncn1)c1cnc(Oc2ccc(C(F)(F)F)nc2)cc1C(F)(F)F (stereo not drawn) [I-04] | 90 to 100 |  | 100 | 90 to 100 | 90 to 100
